According to patent US8088758B2, “17β-hydroxysteroid dehydrogenase type I inhibitors” (Abbott Products GmbH, priority 2003, dated 2012):

Target: T1, recombinant human 17β-hydroxysteroid dehydrogenase type 1 (Homo sapiens, UniProt P14061)
T1 construct: made in house; host or cells: Sf9 insect cells (baculovirus, Bac to Bac Expression System)
T1 sequence (P14061 1-328): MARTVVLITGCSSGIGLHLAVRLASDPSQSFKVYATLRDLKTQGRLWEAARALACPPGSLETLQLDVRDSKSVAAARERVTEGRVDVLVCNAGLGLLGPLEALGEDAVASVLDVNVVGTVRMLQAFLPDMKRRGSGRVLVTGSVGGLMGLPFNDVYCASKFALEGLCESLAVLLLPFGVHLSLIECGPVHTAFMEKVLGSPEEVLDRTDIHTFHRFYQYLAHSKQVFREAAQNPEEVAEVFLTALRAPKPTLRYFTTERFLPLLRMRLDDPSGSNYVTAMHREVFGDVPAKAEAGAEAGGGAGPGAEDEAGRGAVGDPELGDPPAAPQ
Assay: Inhibition of recombinant human 17β-hydroxysteroid dehydrogenase type 1 (conversion of 3H-estrone to estradiol, HPLC)
Type: biochemical
Conditions: 30 nM 3H-estrone, 1 mM NADPH, 30 min at RT; for inhibition at 0.1 µM: inhibitor 100 nM, read-out: Inhibition of rec. 17β-HSD1 (% inhibition), 100 nM; for inhibition at 1 µM: inhibitor 1 μm, read-out: Inhibition of rec. 17β-HSD1 (% inhibition), 1 μm
Description: 1. Inhibition of the 17β-hydroxysteroid Dehydrogenase Type 1 Enzyme
17β-HSD1 Purification: Recombinant baculovirus was generated by the “Bac to Bac Expression System” (Invitrogen). Recombinant bacmid was transfected to Sf9 insect cells using “Cellfectin Reagent” (Invitrogen). 60 h later cells were harvested; the microsomal fraction was isolated as described by Puranen et al. 1994. Aliquots were stored frozen until determination of enzymatic activity.
Assay—Inhibition of Recombinant Human 17β-hydroxysteroid Dehydrogenase Type 1:
Recombinant protein (0.1 μg/ml) was incubated in 20 mM KH2PO4 pH 7.4 with 30 nM 3H-estrone and 1 mM NADPH for 30 min at RT, in the presence of potential inhibitors at concentrations of 1 μM or 0.1 μM. Inhibitor stock solutions were prepared in DMSO. Final concentration of DMSO was adjusted to 1% in all samples. The enzyme reaction was stopped by addition of 10% trichloroacetic acid (final concentration). Samples were centrifuged in a microtiter plate at 4000 rpm for 10 min. Supernatants were applied to reverse phase HPLC on a Waters Symmetry C18 column, equipped with a Waters Sentry Guard column. Isocratic HPLC runs were performed at RT at a flow rate of 1 ml/min of acetonitrile:water 48:52 as running solvent. Radioactivity was monitored in the eluate by a Packard Flow Scintillation Analyzer. Total radioactivity for estrone and estradiol were determined in each sample and percent conversion of estrone to estradiol was calculated according to the following formula:
Percent inhibition was calculated as follows: % inhibition=100−% conversion

Compound	inhibition at 0.1 µM	inhibition at 1 µM
C[C@]12CC[C@@H]3c4ccc(O)cc4CC[C@H]3[C@@H]1[C@H](CCCC(=O)N1CCOCC1)CC2=O [Example 1, 3-Hydroxy-15β-(4-morpholin-4-yl-4-oxo-butyl)-estra-1,3,5(10)-trien-17-one]	49.9%	80.2%
C[C@]12CC[C@@H]3c4ccc(O)cc4CC[C@H]3[C@@H]1[C@H](CCCC(=O)NCc1ccccc1)CC2=O [Example 3A, N-Benzyl-4-(3-hydroxy-17-oxo-estra-1,3,5(10)-trien-15β-yl)-butyramide]	51.6%	84.1%
COc1ccc2c(c1)CC[C@H]1[C@@H]3[C@H](CCCC(=O)NCc4ccccc4)CC(=O)[C@@]3(C)CC[C@H]21 [Example 3B, N-Benzyl-4-(3-methoxy-17-oxo-estra-1,3,5(10)-trien-15β-yl)-butyramide]	77.4%	82.1%
CNC(=O)CCC[C@@H]1CC(=O)[C@@]2(C)CC[C@@H]3c4ccc(O)cc4CC[C@H]3[C@H]12 [Example 4A, 4-(3-Hydroxy-17-oxo-estra-1,3,5(10)-trien-15β-yl)-N-methyl-butyramide]	47.1%	66%
CNC(=O)CCC[C@@H]1CC(=O)[C@@]2(C)CC[C@@H]3c4ccc(OC)cc4CC[C@H]3[C@H]12 [Example 4B, 4-(3-Methoxy-17-oxo-estra-1,3,5(10)-trien-15β-yl)-N-methyl-butyramide]	30.5%	60.8%
COc1ccc2c(c1)CC[C@H]1[C@@H]3[C@H](CCCC(=O)NCc4ccco4)CC(=O)[C@@]3(C)CC[C@H]21 [Example 7]	28.7%	63.4%
COc1ccc2c(c1)CCC1C2CC[C@]2(C)C(=O)C[C@@H](CCCC(=O)NCCc3ccc(O)cc3)C12 (stereo partly shown) [Example 22]	27.3%	57.8%
COc1ccc2c(c1)CCC1C2CC[C@]2(C)C(=O)C[C@@H](CCCC(=O)NCCc3cccs3)C12 (stereo partly shown) [Example 29]	29.6%	69.3%
COc1ccc2c(c1)CCC1C2CC[C@]2(C)C(=O)C[C@@H](CCCC(=O)NCCc3c[nH]c4c(C)cccc34)C12 (stereo partly shown) [Example 31]	52.8%	77.9%
Cc1cccc2c(CCNC(=O)CCC[C@@H]3CC(=O)[C@@]4(C)CC[C@@H]5c6ccc(O)cc6CC[C@H]5[C@H]34)c[nH]c12 [Example 36, 4-(3-Hydroxy-17-oxo-estra-1,3,5(10)-trien-15β-yl)-N-[2-(7-methyl-1H-indol-3-yl)-ethyl]-butyramide]	72.9%	94.3%
C[C@]12CC[C@@H]3c4ccc(O)cc4CC[C@H]3[C@@H]1[C@H](CCCC(=O)NCc1ccc(F)cc1F)CC2=O [Example 37, N-(2,4-Difluoro-benzyl)-4-(3-hydroxy-17-oxo-estra-1,3,5(10)-trien-15β-yl)-butyramide]	47.4%	87.2%
CN(Cc1ccccc1)C(=O)CCC[C@@H]1CC(=O)[C@@]2(C)CC[C@@H]3c4ccc(O)cc4CC[C@H]3[C@H]12 [Example 38, N-Benzyl-4-(3-hydroxy-17-oxo-estra-1,3,5(10)-trien-15β-yl)-N-methyl-butyramide]	60.5%	89.5%
C[C@]12CC[C@@H]3c4ccc(O)cc4CC[C@H]3[C@@H]1[C@@H](CCCC(=O)NCc1ccccc1)CC2=O [Example 39, N-Benzyl-4-(3-hydroxy-17-oxo-estra-1,3,5(10)-trien-15α-yl)-butyramide]	41.8%	82.4%
C[C@]12CC[C@@H]3c4ccc(O)cc4CC[C@H]3[C@@H]1[C@@H](CCCC(=O)N1CCOCC1)CC2=O [Example 40, 3-Hydroxy-15α-(4-morpholin-4-yl-4-oxo-butyl)-estra-1,3,5(10)-trien-17-one]	32.3%	79.4%
COc1ccc2c(c1)CCC1C2CC[C@]2(C)C(=O)C[C@H](C(=O)NCc3nc4ccccc4[nH]3)C12 (stereo partly shown) [Example 58]	25%	65.3%
COc1ccc2c(c1)CCC1C2CC[C@]2(C)C(=O)C[C@H](C(=O)Nc3ncc(C)s3)C12 (stereo partly shown) [Example 105]	33.8%	81%
COc1ccc2c(c1)CCC1C2CC[C@]2(C)C(=O)C[C@H](C(=O)N(C)Cc3cccc4ccccc34)C12 (stereo partly shown) [Example 152]	25.6%	41.4%
COc1ccc2c(c1)CC[C@H]1[C@@H]3[C@H](CCC(=O)NC4CCCCC4)CC(=O)[C@@]3(C)CC[C@H]21 [Example 310]	67.9%	91.7%

Compound	inhibition at 0.1 µM	inhibition at 1 µM
COc1ccc2c(c1)CC[C@H]1[C@@H]3[C@H](CCC(=O)N(C)C4CCCCC4)CC(=O)[C@@]3(C)CC[C@H]21 [Example 313]	62.6%	93%
CCOC(=O)Cc1csc(NC(=O)CC[C@@H]2CC(=O)[C@@]3(C)CC[C@@H]4c5ccc(OC)cc5CC[C@H]4[C@H]23)n1 [Example 314]	33.6%	62.1%
COc1ccc2c(c1)CC[C@H]1[C@@H]3[C@H](CCC(=O)NCc4ccc5c(c4)OCO5)CC(=O)[C@@]3(C)CC[C@H]21 [Example 315]	29%	74.4%
COc1ccc2c(c1)CC[C@H]1[C@@H]3[C@H](CCC(=O)N4CCOCC4)CC(=O)[C@@]3(C)CC[C@H]21 [Example 316]	25.3%	74.5%
COc1ccc2c(c1)CC[C@H]1[C@@H]3[C@H](CCC(=O)NCc4cccc(F)c4)CC(=O)[C@@]3(C)CC[C@H]21 [Example 322]	45.7%	66.3%
COc1ccc2c(c1)CC[C@H]1[C@@H]3[C@H](CCC(=O)NCc4ccc(Cl)cc4)CC(=O)[C@@]3(C)CC[C@H]21 [Example 323]	28.5%	72.7%
COc1ccc2c(c1)CC[C@H]1[C@@H]3[C@H](CCC(=O)NCCc4ccc(O)cc4)CC(=O)[C@@]3(C)CC[C@H]21 [Example 324]	57.9%	91.5%
COc1ccc2c(c1)CC[C@H]1[C@@H]3[C@H](CCC(=O)NCCc4cccs4)CC(=O)[C@@]3(C)CC[C@H]21 [Example 327]	28.7%	77%
COc1ccc2c(c1)CC[C@H]1[C@@H]3[C@H](CCC(=O)Nc4ncc(C)s4)CC(=O)[C@@]3(C)CC[C@H]21 [Example 329]	78.9%	96.2%
COc1ccc2c(c1)CC[C@H]1[C@@H]3[C@H](CCCCC(=O)NC4CC4)CC(=O)[C@@]3(C)CC[C@H]21 [Example 330]	25.2%	75.9%
COc1ccc2c(c1)CC[C@H]1[C@@H]3[C@H](CCCCC(=O)NC4CCCCC4)CC(=O)[C@@]3(C)CC[C@H]21 [Example 331]	37%	88%
COc1ccc2c(c1)CC[C@H]1[C@@H]3[C@H](CCCCC(=O)NCc4ccco4)CC(=O)[C@@]3(C)CC[C@H]21 [Example 333]	47.9%	91%
COc1ccc2c(c1)CC[C@H]1[C@@H]3[C@H](CCCCC(=O)NCc4ccc5c(c4)OCO5)CC(=O)[C@@]3(C)CC[C@H]21 [Example 335]	59%	90.5%
COc1ccc2c(c1)CC[C@H]1[C@@H]3[C@H](CCCCC(=O)NCc4cccnc4)CC(=O)[C@@]3(C)CC[C@H]21 [Example 338]	28.7%	84.6%
COc1ccc2c(c1)CC[C@H]1[C@@H]3[C@H](CCCCC(=O)NCc4ccncc4)CC(=O)[C@@]3(C)CC[C@H]21 [Example 339]	25.9%	82.9%
COc1ccc2c(c1)CC[C@H]1[C@@H]3[C@H](CCCCC(=O)NCc4ccccc4)CC(=O)[C@@]3(C)CC[C@H]21 [Example 340]	51.4%	91.9%
COc1ccc2c(c1)CC[C@H]1[C@@H]3[C@H](CCCCC(=O)NCc4ccccc4OC)CC(=O)[C@@]3(C)CC[C@H]21 [Example 341]	38.1%	88%
